According to patent US20200148617A1, “GEMCABENE, PHARMACEUTICALLY ACCEPTABLE SALTS THEREOF, COMPOSITIONS THEREOF AND METHODS OF USE THEREFOR” (GEMPHIRE THERAPEUTICS INC., priority 2017, published 2020):

What was measured:
[1] = system: hepatic mRNA expression in STAM™ mice; experiment: Murine STAM model of NASH-HCC: hepatic gene expression by quantitative RT-PCR; format: in vivo, mouse
Protocol: A study was performed to evaluate the efficacy of gemcabene calcium salt hydrate Crystal Form 1 having a PSD90 of 52 μm as measured by laser light diffraction, in treating non-alcoholic steatosis hepatitis (NASH) in the murine STAM™ model of NASH-HCC.
Briefly, two-day old neonatal C57BL/6 male mice were administered low-dose streptozotocin (STZ), and were subsequently fed a HFC diet from 4 weeks of age. In this model, the mice typically develop liver steatosis and diabetes, reaching steatohepatitis within 3 weeks, followed by cirrhosis within 8 weeks, and carcinoma within 16 weeks. In the current study, mice were administered daily oral gemcabene calcium salt hydrate Crystal Form 1 starting at week 6 of age and were sacrificed at week 9. Telmisartan (with antisteatotic, anti-inflammatory and antifibrotic effects in STAM™ mice) was used as a positive comparator. A baseline reference group was administered vehicle at day 2 of age, and from week 6 of age was vehicle-treated and chow-fed. Five STAM™ groups were streptozocin-treated at day 2 of age and fed a HFC-diet beginning with week 4 of age. These STAM™ groups were orally administered from week 6 one of the following: water-vehicle, gemcabene calcium salt hydrate Crystal Form 1 at 30, 100 and 300 mg/kg daily, or telmisartan ([…]®) 10 mg/kg daily. Telmisartan ([…]®) was purchased from Boehringer Ingelheim GmbH (Germany) and dissolved in pure water. All groups were sacrificed at week 9. Vehicle, gemcabene calcium salt hydrate Crystal Form 1, or telmisartan were administered by oral gavage once daily.
Various gene expression markers of liver metabolism were evaluated by Real-Time PCR (RT-PCR) in all mouse groups. Total RNA was extracted from liver samples using RNAiso (Takara Bio, Japan) according to the manufacturer's instructions. One μg of RNA was reverse-transcribed using a reaction mixture containing 4.4 mM MgCl2 (F. Hoffmann-La Roche, Switzerland), 40 U RNase inhibitor (Toyobo, Japan), 0.5 mM dNTP (Promega, USA), 6.28 μM random hexamer (Promega), 5× first strand buffer (Promega), 10 mM dithiothreitol (Invitrogen, USA) and 200 U MMLV-RT (Invitrogen) in a final volume of 20 μL. The reaction was carried out for 1 hour at 37° C., followed by 5 minutes at 99° C. Real-time PCR was performed using real-time PCR DICE and SYBR premix Taq (Takara Bio). To calculate the relative mRNA expression level, the expression of each gene was normalized to that of reference gene 36B4 (gene symbol: Rplp0). Information of PCR-primer sets is described in Tables 20A-20C. Statistical analyses were performed using the Bonferroni Multiple Comparison Test on GraphPad Prism 6 (GraphPad Software Inc., USA). P values <0.05 were considered statistically significant. Results are expressed as mean±SD.
In order to calculate the relative mRNA expression level, the expression of each gene was normalized to that of the reference gene 36B4 (gene symbol: Rplp0). The gene expression levels were measured by quantitative RT-PCR. Results were normalized with values for the vehicle-treated normal group. […] Gemcabene calcium salt hydrate Crystal Form 1 (PSD90=52 μm) modulated the mRNA expression of many hepatic genes that play a significant role in the liver homeostasis and injury.

[2] = Particle size distribution by laser light diffraction (Malvern Mastersizer 2000, Fraunhofer); format: physicochemical; details: cumulative volume
Protocol: In some embodiments, the particle size distribution and the PSD90 of a compound of the invention is determined by the laser light diffraction particle size distribution analysis. The particle size distribution is determined in accordance with the Fraunhofer light diffraction method. In this method, a coherent laser beam passes through the sample and the resulting diffraction pattern is focused on a multi-element detector. Since the diffraction pattern depends, among other parameters, on particle size, the particle size distribution can be calculated based on the measured diffraction pattern of the sample. The method is described in more detail in USP38-NF33, <429> Light Diffraction Measurement of Particle Size.
The particle size distribution was determined in accordance with the Fraunhofer light diffraction method. A coherent laser beam was passed through the sample and the resulting diffraction pattern was focused on a multi-element detector. Because the diffraction pattern depends, among other parameters, on particle size, the particle size distribution (PSD) was calculated based on the measured diffraction patter of the sample.
Stock dispersion solution was prepared by adding a few drops of the dispersing aid (e.g., 1% w/w solution of a detergent in white spirit such as Span 80, Fluka (85548-250 ml)) to an appropriate amount of substance and mixed carefully. The dispersion was then slowly diluted to a final volume of about 10 ml while vortexing. The suspension cell of the instrument (Malvern Mastersizer 2000 equipped with Hydro 2000S sample dispersion unit) was filled with dispersion medium and a background measurement was taken. […] The cumulative volume distribution was determined in accordance with the instrument's instruction manual.
The PSD10, PSD50, and PSD90 values were determined from the cumulative volume distribution of each measurement. Values smaller than 10 μm were reported to one decimal place. Results larger than 10 μm were reported as single digit values. Sample parameters used in analysis are shown below: […]

[3] = Effect of steady-state gemcabene 600 mg on single-dose pharmacokinetics of ON 1/35 (ethinyl estradiol/norethindrone) in healthy female subjects; format: in vivo, human; details: for exposure in presence of gemcabene calcium salt hydrate Crystal Form 1 (geometric LS mean ratio): single dose ON 1/35 with gemcabene 600 mg daily at steady state, mild drug-drug interaction
Protocol: An open-label, two-sequence, cross-over study to assess the steady-state effects of gemcabene on the single-dose pharmacokinetics (PK) of oral contraceptive tablets in healthy female subjects was conducted with 300 mg tablets containing gemcabene calcium salt hydrate Crystal Form 1 having PSD90 of 52 μm (Tablet F).
The population for this study was generally healthy, adult female subjects of childbearing potential (≥18 to ≤35 years of age). This population supports the overall objective of the study to evaluate the effect of 600 mg of gemcabene calcium salt hydrate Crystal Form 1 having PSD90 of 52 μm at steady-state on the PK of a single dose of ON 1/35 (Ortho Novum 1/35; combined ethinyl estradiol/norethindrone oral contraceptive). The primary objective of this study was to assess the effect of daily 600 mg of gemcabene calcium salt hydrate Crystal Form 1 having PSD90 of 52 μm at steady-state on the pharmacokinetics (PK) of ON 1/35. The secondary objectives of this study were to assess the safety and tolerability of daily gemcabene 600 mg in combination with a single-dose ON 1/35 and to assess the steady-state PK of 600 mg of gemcabene calcium salt hydrate Crystal Form 1 having PSD90 of 52 μm (Tablet F×2).
Gemcabene calcium salt hydrate Crystal Form 1 having PSD90 of 52 μm was administered orally as a single dose of 600 mg, given as two 300 mg tablets (300-mg Tablet F×2) (with 240 mL of water). Gemcabene calcium salt hydrate Crystal Form 1 having PSD90 of 52 μm (600 mg) was administered at the same time each day.
Non-compartmental PK single-dose parameters were obtained, including Cmax, time to the maximum observed plasma concentration (Tmax), AUC from time 0 to time of last detectable concentration (AUClast) and when possible, AUC extrapolated to infinite time (AUC∞), percent of AUC∞ obtained from forward extrapolation (AUCextrap %), apparent terminal rate constant (λz), apparent terminal half-life ([…]), apparent total body clearance (CL/F), and apparent volume of distribution of the terminal phase (Vz/F) for ethinyl estradiol and norethindrone.

[4] = 10 mg/kg, normalized to Vehicle in Normal, mean ± SD, n = 7
[5] = Treatment B = single dose ON 1/35 and daily gemcabene 600 mg, Treatment A = single dose ON 1/35 alone, healthy female subjects

With `CCCc1nc2c(C)cc(-c3nc4ccccc4n3C)cc2n1Cc1ccc(-c2ccccc2C(=O)O)cc1` [telmisartan, reference compound] as the compound, how does the “ANGPTL3 gene expression (hepatic mRNA, RT-PCR)” value [1, 4] read?
The value was 0.7 ± 0.2.

And the “ANGPTL4 gene expression (hepatic mRNA, RT-PCR)” value [1, 4]?
The value was 2.1 ± 0.3.

What about the “CCR5 gene expression (hepatic mRNA, RT-PCR)” value [1, 4] of the same compound?
The value was 1.5 ± 0.3.

What about the “CXCL1/KC gene expression (hepatic mRNA, RT-PCR)” value [1, 4] of the same compound?
The value was 0.6 ± 0.3.

What about the “LPL gene expression (hepatic mRNA, RT-PCR)” value [1, 4] of the same compound?
Its value is 2.4 ± 0.5.

What about the “Sulf-2 gene expression (hepatic mRNA, RT-PCR)” value [1, 4] of the same compound?
The value was 3.9 ± 0.9.

And the “CRP mRNA levels” value ([1]; telmisartan 10 mg/kg, vs vehicle-treated STAM group)?
Its value is “No significant differences”.

Which “D10 (PSD10)” value [2] does the source give for `CC(C)(CCCCOCCCCC(C)(C)C(=O)[O-])C(=O)[O-].[Ca+2]` [Sample 9] here?
The value was 17 μm.

And the “D50 (PSD50)” value [2]?
The value was 386 μm.

And the “D90 (PSD90)” value [2]?
The value was 996 μm.

With `C#C[C@]1(O)CC[C@H]2[C@@H]3CCc4cc(O)ccc4[C@H]3CC[C@@]21C` [ethinyl estradiol] as the compound, how does the “AUC0-12 (h*pg/mL): Ratio Geom. LS Mean (Treatment B/Treatment A)” value [3, 5] read?
The value was 78.54%.

What about the “AUClast (h*pg/mL): Ratio Geom. LS Mean (Treatment B/Treatment A)” value [3, 5] of the same compound?
Its value is 86.70%.

What about the “Cmax (pg/mL): Ratio Geom. LS Mean (Treatment B/Treatment A)” value [3, 5] of the same compound?
The value was 70.50%.

And the “exposure in presence of gemcabene calcium salt hydrate Crystal Form 1 (geometric LS mean ratio)” value [3]?
Its value is “slightly decreased”.

What does the source list for `CC(C)(CCCCOCCCCC(C)(C)C(=O)[O-])C(=O)[O-].[Ca+2]` [Sample 4]?
D10 (PSD10) [2]: 5.8 μm; D50 (PSD50) [2]: 22 μm; D90 (PSD90) [2]: 52 μm

Which “D10 (PSD10)” value [2] does the source give for `CC(C)(CCCCOCCCCC(C)(C)C(=O)[O-])C(=O)[O-].[Ca+2]` [Sample 8] here?
Its value is 8.2 μm.

What about the “D50 (PSD50)” value [2] of the same compound?
Its value is 24 μm.

And the “D90 (PSD90)” value [2]?
Its value is 48 μm.

For `CC(C)(CCCCOCCCCC(C)(C)C(=O)[O-])C(=O)[O-].[Ca+2]` [Sample 10], which “D90 (PSD90)” value [2] is on record?
The value was 55 μm.

With `CC(C)(CCCCOCCCCC(C)(C)C(=O)[O-])C(=O)[O-].[Ca+2]` [Sample 1] as the compound, how does the “D10 (PSD10)” value [2] read?
Its value is 6.3 μm.

What about the “D50 (PSD50)” value [2] of the same compound?
Its value is 50.4 μm.

With `CC(C)(CCCCOCCCCC(C)(C)C(=O)[O-])C(=O)[O-].[Ca+2]` [Sample 2] as the compound, how does the “D10 (PSD10)” value [2] read?
Its value is 4.8 μm.

And the “D50 (PSD50)” value [2]?
The value was 22.9 μm.

With `CC(C)(CCCCOCCCCC(C)(C)C(=O)[O-])C(=O)[O-].[Ca+2]` [Sample 3] as the compound, how does the “D10 (PSD10)” value [2] read?
Its value is 5.3 μm.

What about the “D50 (PSD50)” value [2] of the same compound?
Its value is 32.2 μm.

With `CC(C)(CCCCOCCCCC(C)(C)C(=O)[O-])C(=O)[O-].[Ca+2]` [Sample 11] as the compound, how does the “D90 (PSD90)” value [2] read?
Its value is 47 μm.

Which “D10 (PSD10)” value [2] does the source give for `CC(C)(CCCCOCCCCC(C)(C)C(=O)[O-])C(=O)[O-].[Ca+2]` [Sample 7] here?
Its value is 5.4 μm.

And the “D50 (PSD50)” value [2]?
Its value is 20 μm.

What about the “D90 (PSD90)” value [2] of the same compound?
The value was 62 μm.

What does the source list for `CC(C)(CCCCOCCCCC(C)(C)C(=O)[O-])C(=O)[O-].[Ca+2]` [Sample 5]?
D10 (PSD10) [2]: 7.8 μm; D50 (PSD50) [2]: 101 μm; D90 (PSD90) [2]: 431 μm

Which results are given for `C#C[C@]1(O)CC[C@H]2[C@@H]3CCC4=CC(=O)CC[C@@H]4[C@H]3CC[C@@]21C` [norethindrone]?
AUCinf (h*pg/mL): Ratio Geom. LS Mean (Treatment B/Treatment A) [3, 5]: 86.33%; AUClast (h*pg/mL): Ratio Geom. LS Mean (Treatment B/Treatment A) [3, 5]: 85.94%; Cmax (pg/mL): Ratio Geom. LS Mean (Treatment B/Treatment A) [3, 5]: 90.56%; exposure in presence of gemcabene calcium salt hydrate Crystal Form 1 (geometric LS mean ratio) [3]: slightly decreased

Which results are given for `CC(C)(CCCCOCCCCC(C)(C)C(=O)[O-])C(=O)[O-].[Ca+2]` [Sample 6]?
D10 (PSD10) [2]: 7.8 μm; D50 (PSD50) [2]: 25 μm; D90 (PSD90) [2]: 52 μm
